Converted amounts (≈) assume the structure as drawn. Where two headings read alike, the source gives them in different places.
Tests used:
[1] = Thermodynamic aqueous solubility in USP phosphate buffer (Example 25); assay type: physicochemical; settings: USP phosphate buffer pH 7.4, 24 h at 20° C., LC-MS/MS, read-out: Thermodynamic aq solubility
Procedure: The method described here was developed to accurately determine the aqueous solubility of compounds of the invention in buffer solution at a given pH.
Solid material (1 mg) of test compound is added to a glass vial followed by 1 ml of buffer solution (pH 7.4 if another pH not is stated). The solution is left on an orbital shaker for 24 h at 20° C. After incubation, the remaining solid material is separated from solution and the solubility is quantified using LC-MS/MS.
Prepare 0.2 M monobasic potassium phosphate solution by dissolving 27.22 g of KH2PO4 (MW=136.09 g/mol) in water, dilute with water to 1000 mL.
Add 250 mL of the monobasic potassium phosphate solution in a 1000 mL volumetric flask together with 195.5 mL 0.2M NaOH (aq). Add water to 1000 mL. Check pH.
Compounds of the invention/examples to be tested were provided as solid material, weighed into glass vials (2 mL). Each vial contains approximately 1 mg solid compound, two vials/compound are prepared, i.e. duplicate samples of each compound. If a freshly prepared 10 mM DMSO stock solution was available, this solution was used for MS optimization and preparation of standards. If a DMSO-stock solution was not available, a 10 mM solution from solid material 1 mg was prepared.
• Test compounds are employed as solid material. Since duplicate samples are prepared for each compound, each test compound arrives in two vials (1+1 mg). Samples are denoted as sample 1 and 2. • Note amount of substance in each vial. Add USP phosphate buffer pH 7.4 (1 mL) to each sample vial and seal vials using screw caps. Determine whether the solutions are saturated or if compounds are dissolved, note appearance and time. Start incubation; the samples are incubated on an orbital shaker (450 rpm) at 20° C. for 24 hours.
• Take out the 1 mM DMSO-stock solutions of compounds that are to be tested from freezer. If no 1 mM solutions are available, use master solutions with concentration of 10 mM. Allow the solutions to thaw at rt. • Collect two 96-deep well plates, glass inserts, sealing film, and an 8-channel expandable pipette with tall tips. • Abort shaking after 24 hour. • Note if samples are saturated or if compounds have dissolved. • Transfer 720 μL of sample slurry from each sample vial into glass inserts in a 96-deep well plate using an 8-channel expandable pipette. Samples 1 and 2 are transferred to separate plates. Thus, all samples 1 are placed in one plate and all samples 2 in the second plate. • Seal the plates using sealing film. • Centrifuge the plates at 3000 rpm for 15 min at rt. Set acceleration to 9 and brake to 7 (9=fastest acc/brake, 0=slowest acc/brake). • Transfer the supernatants to new glass inserts using an 8-channel pipette, centrifuge samples a second time. • Repeat the procedure above, i.e. centrifuge samples a third time. • After the third centrifugation, transfer supernatant to glass vials, seal vials with screw caps. Control that the solutions are clear and that no particles are present in sample. If solid material is observed, an additional centrifugation step is performed. • Standards are prepared from DMSO-stock solutions (1 or 10 mM). For each compound, transfer […] 1 mM solution to a glass vial, add DMSO (90 μL) to reach a final concentration of 100 μM, seal with screw cap and mix solution quickly on a vortex mixer. Further dilute the 100 μM solution with a 1:1 mixture of acetonitrile and USP phosphate buffer (pH 7.4) to standards with concentration 1000, 500, 100, 25, 2, and 1 nM. Standards are prepared in test tubes.
• Place standards in autosampler. • Try out the dilution of solubility samples so that their response will be within the standard curve. Dilute solubility sample one (or two) with the 1:1 mixture of acetonitrile:buffer. […]

LTC4 synthase = molecular target: T1, LTC4 synthase (Homo sapiens, UniProt Q16873); assay: Test 1 in vitro assay: LTC4 synthase converts LTA4 to LTC4, HTRF detection; assay type: biochemical; design: made in house; host or cells: Pichia pastoris; settings: Test 1 (unless otherwise indicated)
T1 sequence (Q16873 1-150): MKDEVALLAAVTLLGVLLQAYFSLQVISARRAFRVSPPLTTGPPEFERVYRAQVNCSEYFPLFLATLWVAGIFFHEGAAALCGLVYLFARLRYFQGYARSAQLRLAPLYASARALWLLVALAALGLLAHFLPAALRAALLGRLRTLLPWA
Procedure: In the assay, LTC4 synthase catalyses the reaction where the substrate LTA4 is converted to LTC4. Recombinant human LTC4 synthase is expressed in Piccia pastoralis and the purified enzyme is dissolved in 25 mM tris-buffer pH 7.8 supplemented with 0.1 mM glutathione (GSH) and stored at −80° C. The assay is performed in phosphate buffered saline (PBS) pH 7.4 and 5 mM GSH in 384-well plates.
The following is added chronologically to each well:
1. 48 μL LTC4 synthase in PBS with 5 mM GSH. The total protein concentration in this solution is 0.5 μg/mL. 2. 1 μL inhibitor in DMSO (final concentration 10 μM). 3. Incubation of the plate at room temperature for 10 min. 4. 1 μL LTA4 (final concentration 2.5 μM). 5. Incubation of the plate at room temperature for 5 min. 6. 10 μL of the incubation mixture is analysed using homogenous time resolved fluorescent (HTRF) detection.
IC50 values for title compounds of the examples are depicted in the tables hereinafter (where, they are the values obtained using Test 1, unless otherwise indicated).

[2] = aqueous buffer, thermodynamic from solid

SMILES | solubility thermodynamic at 24 h [1, 2] [µM] | IC50 (LTC4 synthase; Table 2) [nM] | other results
COc1ccc(C(=O)c2ccc(C(=O)c3ccc(N(CC4CC4)c4ccc(Cl)cc4)cn3)cc2C(=O)O)cc1 [1:4, 5-{5-[(4-Chlorophenyl)(cyclopropylmethyl)amino]picolinoyl}-2-(4-methoxy-benzoyl)benzoic acid] | 2210 (≈ 1200 µg/mL) | – | –
COc1ccc(C(=O)c2ccc(C(=O)c3ccc(N(CC4CC4)c4ccc(Cl)cc4F)cn3)cc2C(=O)O)cc1 [1:5, 5-{5-[(4-Chloro-2-fluorophenyl)(cyclopropylmethyl)amino]picolinoyl}-2-(4-methoxybenzoyl)benzoic acid] | 2480 (≈ 1380 µg/mL) | – | –
CCCCCCC(=O)c1ccc(C(=O)c2ccc(N(C)c3ccc(Cl)cc3)cn2)cc1C(=O)O [1:17, 5-{5-[(4-Chlorophenyl)(methyl)amino]picolinoyl}-2-heptanoylbenzoic acid] | 153 (≈ 73.3 µg/mL) | – | –
CN(c1ccc(Cl)cc1)c1ccc(C(=O)c2ccc(C(=O)C3(c4ccccc4)CC3)c(C(=O)O)c2)nc1 [1:19, 5-{5-[(4-Chlorophenyl)(methyl)amino]picolinoyl}-2-(1-phenylcyclopropyl-carbonyl)benzoic acid] | 680 (≈ 347 µg/mL) | – | –
CN(c1ccc(Cl)cc1)c1ccc(C(=O)c2ccc(C(=O)c3ccccc3)c(C(=O)O)c2)nc1 [Example 1:1, 2-Benzoyl-5-{5-[(4-chlorophenyl)(methyl)amino]picolinoyl}benzoic acid] | 2580 (≈ 1210 µg/mL) | – | –
CN(c1ccc(Cl)cc1)c1ccc(C(=O)c2ccc(C(=O)c3cccc(C(Cl)Cl)c3)c(C(=O)O)c2)nc1 [Example 2, 5-(5-((4-Chlorophenyl)(methyl)amino)picolinoyl)-2-(3-(dichloromethyl)benzoyl)-benzoic acid] | – | – | IC50 (LTC4 synthase): 34 nM
CN(c1ccc(Cl)cc1)c1ccc(C(=O)c2ccc(C(=O)c3cccc(C=O)c3)c(C(=O)O)c2)nc1 [Example 3, 5-(5-((4-Chlorophenyl)(methyl)amino)picolinoyl)-2-(3-formylbenzoyl)benzoic acid] | – | – | IC50 (LTC4 synthase): 52 nM
O=C(c1ccc(C(=O)c2ccc3c(c2)OCCO3)c(C(=O)O)c1)c1ccc(N(CC2CC2)c2ccc(Cl)cc2)cn1 [Example 4, 5-(5-((4-Chlorophenyl)(cyclopropylmethyl)amino)picolinoyl)-2-(2,3-dihydrobenzo-[b][1,4]dioxine-6-carbonyl)benzoic acid] | – | – | IC50 (LTC4 synthase): 21 nM
O=C(c1ccc(Cl)cc1)c1ccc(C(=O)c2ccc(C(=O)c3ccccc3)c(C(=O)O)c2)nc1 [Example 5, 2-Benzoyl-5-(5-(4-chlorobenzoyl)picolinoyl)benzoic acid] | – | – | IC50 (LTC4 synthase): 1290 nM
COc1cccc(C(=O)c2ccc(C(=O)c3ccc(Cc4ccc(Cl)cc4)cn3)cc2C(=O)O)c1 [Example 6, 5-(5-(4-Chlorobenzyl)picolinoyl)-2-(3-methoxybenzoyl)benzoic acid] | 1900 (≈ 924 µg/mL) | – | IC50 (LTC4 synthase): 155 nM
CN(c1ccc(Cl)cc1)c1ccc(C(=O)c2ccc(C(=O)c3cccc(O)c3)c(C(=O)O)c2)nc1 [Example 7, 5-(5-((4-Chlorophenyl)(methyl)amino)picolinoyl)-2-(3-hydroxybenzoyl)benzoic acid] | – | – | IC50 (LTC4 synthase): 83 nM
O=C(c1ccc(C(=O)C2(c3ccccc3)CC2)c(C(=O)O)c1)c1ccc(N(CC2CC2)c2ccc(Cl)cc2)cn1 [Example 8, 5-(5-((4-Chlorophenyl)(cyclopropylmethyl)amino)picolinoyl)-2-(1-phenylcyclopropanecarbonyl)benzoic acid] | 125 (≈ 68.9 µg/mL) | 41 | –
CN(c1ccc(Cl)cc1)c1ccc(C(=O)c2ccc(C(=O)C3(c4ccccc4)CCCCC3)c(C(=O)O)c2)nc1 [Example 9, 5-(5-((4-Chlorophenyl)(methyl)amino)picolinoyl)-2-(1-phenylcyclohexanecarbonyl)benzoic acid] | – | 32 | solubility thermodynamic at 24 h [1]: 7 µM (≈ 3.87 µg/mL)
COc1ccc(C2(C(=O)c3ccc(C(=O)c4ccc(N(C)c5ccc(Cl)cc5)cn4)cc3C(=O)O)CC2)cc1 [Example 10, 5-(5-((4-Chlorophenyl)(methyl)amino)picolinoyl)-2-(1-(4-methoxyphenyl)cyclopropanecarbonyl)benzoic acid] | 403 (≈ 218 µg/mL) | 22 | –

Further lines, with some results ahead:

solubility thermodynamic at 24 h [1, 2] [µM] | IC50 (LTC4 synthase; Table 2) [nM] | SMILES | other results
– | 76 | CN(c1ccc(Cl)cc1)c1ccc(C(=O)c2ccc(C(=O)C3(c4ccccc4)CCCC3)c(C(=O)O)c2)nc1 [Example 11, 5-(5-((4-Chlorophenyl)(methyl)amino)picolinoyl)-2-(1-phenylcyclopentanecarbonyl)benzoic acid] | –
15 (≈ 7.94 µg/mL) | 65 | CN(c1ccc(Cl)cc1)c1ccc(C(=O)c2ccc(C(=O)C34CC5CC(CC(C5)C3)C4)c(C(=O)O)c2)nc1 [Example 12, 2-(Adamantane-1-carbonyl)-5-(5-((4-chlorophenyl)(methyl)amino)picolinoyl)benzoic acid] | –
– | 18 | COc1cccc(C(=O)c2ccc(C(=O)c3ccc(N(CC4CC4)c4ccc(Cl)cc4)cn3)cc2C(=O)O)c1 [Example 13, 5-(5-((4-Chlorophenyl)(cyclopropylmethyl)amino)picolinoyl)-2-(3-methoxybenzoyl)benzoic acid] | –
1210 (≈ 637 µg/mL) | 30 | O=C(c1ccc(C(=O)c2cccc(O)c2)c(C(=O)O)c1)c1ccc(N(CC2CC2)c2ccc(Cl)cc2)cn1 [Example 14, 5-(5-((4-Chlorophenyl)(cyclopropylmethyl)amino)picolinoyl)-2-(3-hydroxybenzoyl)benzoic acid] | –
– | 55 | CN(c1ccc(Cl)cc1)c1ccc(C(=O)c2ccc(C(=O)C(C)(C)c3ccccc3)c(C(=O)O)c2)nc1 [Example 16, 5-(5-((4-Chlorophenyl)(methyl)amino)picolinoyl)-2-(2-methyl-2-phenylpropanoyl)benzoic acid] | –
– | 235 | CN(c1ccc(Cl)cc1)c1ccc(C(=O)c2ccc(C(=O)CC(C)(C)C)c(C(=O)O)c2)nc1 [Example 17, 5-(5-((4-Chlorophenyl)(methyl)amino)picolinoyl)-2-(3,3-dimethylbutanoyl)benzoic acid] | –
– | 141 | CN(c1ccc(Cl)cc1)c1ccc(C(=O)c2ccc(C(=O)C3CC3c3ccccc3)c(C(=O)O)c2)nc1 (centres unmarked) [Example 19, 5-(5-((4-Chlorophenyl)(methyl)amino)picolinoyl)-2-(2-phenylcyclopropanecarbonyl)benzoic acid] | –
– | 81 | CN(c1ccc(Cl)cc1)c1ccc(C(=O)c2ccc(C(=O)CC3CCCC3)c(C(=O)O)c2)nc1 [Example 20, 5-(5-((4-Chlorophenyl)(methyl)amino)picolinoyl)-2-(2-cyclopentylacetyl)benzoic acid] | –
– | 192 | COc1cccc(CC(=O)c2ccc(C(=O)c3ccc(N(C)c4ccc(Cl)cc4)cn3)cc2C(=O)O)c1 [Example 21] | –
